Experimental data: ChEMBL document CHEMBL6078678, “Unveiling the Antimycobacterial Potential of Novel 4-Alkoxyquinolines: Insights into Selectivity, Mechanism of Action, and In Vivo Exposure” (J Med Chem, 2024)
≈ marks a conversion by molar mass, not a printed value.

System: Mycobacterium tuberculosis
Assay: Antibacterial activity against 2-(quinolin-4-yloxy)acetamide resistant Mycobacterium tuberculosis harboring qcrB gene T313A mutant
Format: functional

With `CCc1ccc(NCCCOc2cc(C)nc3ccc(Br)cc23)cc1` as the molecule, how does the MIC read?
The MIC was 3.13 µM (≈ 1.25 µg/mL).
